From patent publication US12281178B2, “Tuning of pore-forming peptides for increasing pore size, membrane affinity, stability, and antimicrobial activity” (ADOLPHE MERKLE INSTITUTE, UNIVERSITY OF FRIBOURG, priority 2018, dated 2025)
Entries after “also recorded” stand apart in the source; their conditions may differ.

Columns and labels:
[1] = Planar lipid bilayer single channel recordings of CtxA and flexible-template CtxA-DNA assemblies; type: biochemical
Description: The lipid composition for the bilayers consisted of POPC, DOPE and POPS with a 7:3:1 (w/w) ratio (PC/PE/PS) or for the origami structures in diphytanoyl phosphatidylcholine (DiPhyPC). We dissolved the resulting lipid mixture in pentane (total lipid concentration: 10 mg/mL). The buffered electrolyte solution consisted of 1M NaCl, 10 mM HEPES, pH 7.4 or 3M CsCl, 10 mM HEPES, pH 7.4 in 30% glycerol.
We designed Teflon chambers with one big compartment (containing a maximum volume of 1.5 mL) and one small compartment (containing a maximum volume of 200 μL). We pretreated Teflon films (Eastern Scientific LLC, Rockville, MD) with apertures of 50 μm by pipetting 1 μL of pre-treatment solution—hexadecane in hexane 2.5% (v/v)—onto both sides of the aperture of the Teflon film. We then mounted the Teflon film in a Teflon chamber using high-vacuum grease (Dow Corning Corporation), separating the two compartments of the Teflon chamber. The only connection between the compartments was the aperture in the Teflon film over which we formed virtually solvent-free planar lipid bilayers using the technique described by Montal and Mueller^10. Briefly, we added electrolyte solution to both compartments (1.2 mL in the bigger compartment and 160 μL for the smaller one) and spread 1-2 μL of lipid solution onto the surface of the buffered electrolyte solution. After the solvent evaporated, a lipid monolayer (Langmuir film) formed at the air-water interface. […] We then thinned the membrane by lowering and raising the electrolyte solution in one compartment, until we measured a capacitance of 60±10 pF. To monitor capacitance, we applied a triangular voltage and the capacitance was either calculated by the amplifier or determined visually using the manual capacitance compensation of the amplifier. Prior to adding the peptide, we checked the stability of the bilayer (absence of leak currents, expected noise level) by applying transmembrane voltages of up to 200 mV for 5 min at both polarities. We used one of two different amplifiers, an EPC7 (HEKA Instruments Inc., Holliston, MA, USA) or a BC-535 (Warner Instruments Hamden, CT, USA)) and connected both compartments to the amplifier through two Ag/AgCl pellet electrodes (Warner Instruments Hamden, CT, USA). We placed the Teflon chambers inside Faraday cages, on BM4 vibration isolation platforms (Minus K® Technology, Inc., Inglewood, CA, USA). We carried out all experiments at room temperature (22±1° C.) and tested all setups with different model cells to confirm proper functionality of the amplifiers and function generators. We sampled currents at 50 kHz and low-pass 10 kHz. We analysed data using OriginLab (OriginLab Corporation, Northampton, MA, USA) and pClamp (Molecular Devices, Sunnyvale, CA, USA) software.
We performed the experiments with the peptide-DNA hybrid in two different ways: (i) we added all components sequentially—ssDNA-CtxA first, then the template strands, one after the other—or (ii) we mixed the ssDNA-CtxA with the spacer strand (with or without cholesterol) and the template strand in a DNA LoBind tube (Eppendorf Tubes, Hamburg, Germany) and let them react overnight at room temperature (pre-incubation experiments). We also performed the pre-incubation experiments with and without HPLC-SEC purification. In the case of unpurified assemblies, we added the DNA-modified peptides and the spacer strand stoichiometrically and then added the n-mer template (with n equal to 4, 6 or 8) at a ratio of 1 mole for n moles of DNA-modified peptide. When purifying the assemblies, we added the peptide-DNA monomers in excess compared to the template strand (at least 5 n moles of peptide for 1 mol of n-mer template) and removed the excess monomers using HPLC-SEC purification (Agilent SEC 3 column, 300 mm, […], 4.6 mm internal diameter). We then stored the collected assemblies at +4° C. for later use and add the spacer strand in excess prior to the experiment. […]

[2] = system: A549 cells; experiment: Cytotoxic activity: change in confluence of A549 cells over time (IncuCyte); type: cell-based
Description: We grew lung epithelial A549 cells in RPMI 1640 medium containing 25 mM HEPES, 1% L-glutamine, 10% fetal bovine serum and added 1% penicillin-streptomycin for prevention of bacterial contamination of cell cultures. We seeded the cells in 96-well plates (TPP, Trasadingen, Switzerland) with 10′000 cells per well, in a total volume of 50 uL per well. We placed the plates in the IncuCyte Zoom imaging system (Essen Bioscience, Ann Arbor, MI, USA) placed inside of an incubator set to 37° C. and 5% CO2 and monitored the growth of the cell by monitoring the change in confluence over time. We seeded the cells and left them to adhere and replicate for 20 h before adding the templated CtxA-DNA assemblies or native CtxA as control. We then measured the cell confluence every 2 h. To estimate the effect of the different peptide assemblies on the change in confluence over time, we fitted the observed confluence levels after peptide addition linearly.

[3] = applied potential difference of +180 mV

Ceratotoxin A (SIGSALKKALPVAKKIGKIALPIAKAALPVAAGLVG) [Native CtxA]
Minimum concentration to display significant / frequent pore formation [1]: 10 to 20 nM | Pore lifetime [1]: hundreds of milliseconds; also recorded: less than one second | Conductance, open state O1 (3-mer) [1, 3]: 50 ± 25 pS | Conductance, open state O2 (4-mer) [1, 3]: 510 ± 30 pS | Conductance, open state O3 (5-mer) [1, 3]: 1645 ± 200 pS | Conductance, open state O4 (6-mer) [1, 3]: 3125 ± 305 pS | Conductance, open state O5 (7-mer) [1, 3]: 4630 ± — pS | Conductance, open state O6 (8-mer) [1, 3]: 6600 ± — pS | Pore-forming activity ([1]; total peptide concentration of 5 nM, +180 mV): little to no pore formation | Concentration necessary to reduce cell viability [2]: 50 to 100 µM | Total CtxA concentration sufficient to completely stop replication of the cells [2]: 100 µM
